Experimental findings from US5977104A, “Use of NK-1 receptor antagonists for treating bipolar disorders” (Merck Sharp & Dohme Ltd., priority 1996, dated 1999) are described below.

Where two headings read alike, the source gives them in different places.

Test [1] relates to foot tapping in gerbils induced by NK-1 receptor agonist GR73632. Briefly: Gerbil foot-tapping (Assay 2), induced by central infusion of NK-1 receptor agonist GR73632. The conditions noted are these: Meriones unguiculatus, iv. The test is classed as in vivo, Mongolian gerbil. The source says:
CNS-penetrant NK-1 receptor antagonists for use in the present invention can be identified by their ability to inhibit foot tapping in gerbils induced by anxiogenic agents (such as pentagastrin) or central infusion of NK-1 receptor agonists such as GR73632, or caused by aversive stimulation such as foot shock or single housing, based on the method of Rupniak & Williams, Eur. J. Pharmacol., 1994, 265, 179.
Male or female Mongolian gerbils (35-70 g) are anaesthetised by inhalation of an isoflurane/oxygen mixture to permit exposure of the jugular vein in order to permit administration of test compounds or vehicle in an injection volume of 5ml/kg i.v. Alternatively, test compounds may be administered orally or by subcutaneous or intraperitoneal routes. A skin incision is then made in the midline of the scalp to expose the skull. […]

Test [2] concerns cisplatin-induced emesis in ferrets. The test is described as follows: Ferret emesis (Assay 3), cisplatin-induced. The test is classed as in vivo. To be noted: Mustela putorius, po, 4 h; p.o., cisplatin 10 mg/kg i.v. at 60 minutes following dosing; read-out: ferret emesis: ID90. How it is done:
Ten minutes later they are fed with approximately 100 g of tinned cat food. At 60 minutes following oral dosing, cisplatin (10 mg/kg) is given i.v. via a jugular vein catheter inserted under a brief period of halothane anaesthesia. The catheter is then removed, the jugular vein ligated and the skin incision closed. The ferrets recover rapidly from the anaesthetic and are mobile within 10-20 minutes. The animals are observed continuously during recovery from the anaesthetic and for 4 hours following the cisplatin injection, after which time the animals are killed humanely. The numbers of retches and vomits occurring during the 4 hours after cisplatin administration are recorded by trained observers.

In test [3] the test system is separation-induced vocalisations by guinea-pig pups. Briefly: Separation-induced vocalisation in guinea-pig pups (Assay 4). The format is in vivo. The conditions noted are these: Cavia porcellus, po, 4 hr. pretreatment; read-out: guinea-pig vocalisation (4 hr. pretreatment): ID50. How it is done: Male and female guinea-pigs pups are housed in family groups with their mothers and littermates throughout the study. Experiments are commenced after weaning when the pups are 2 weeks old. Before entering an experiment, the pups are screened to ensure that a vigorous vocalisation response is reproducibly elicited following maternal separation. The pups are placed individually in an observation cage (55 cm×39 cm×19 cm) in a room physically isolated from the home cage for 15 minutes and the duration of vocalisation during this baseline period is recorded. […] On test days each pup receives an oral dose or an s.c. or i.p. injection of test compound or vehicle and is then immediately returned to the home cage with its mother and siblings for 30 to 60 minutes (or for up to 4 hours following an oral dose, dependent upon the oral pharmacokinetics of the test compound) before social isolation for 15 minutes as described above. […] Between 6 and 8 animals receive each test compound at each dose tested.

Regarding `OC[C@@H](O[C@H]1OCCN(Cc2nc[nH]n2)[C@H]1c1ccc(F)cc1)c1cc(C(F)(F)F)cc(C(F)(F)F)c1` [2-(R)-(1-(S)-(3,5-bis(trifluoromethyl)phenyl)-2-hydroxyethoxy)-3-(S) -(4-fluorophenyl)-4-(1,2,4-triazol-3-yl)methylmorpholine], the ED50 in test [1] (5 min, i.v., immediately prior to GR73632 challenge (5 mins.), read-out: gerbil foot-tapping (5 mins.): ID50) was 0.38 mg/kg; in test [1] (24 hours prior to central NK1 agonist challenge, read-out: gerbil foot-tapping (24 hrs.): ID50), 2.2 mg/kg; in test [3] it was 0.91 mg/kg. Moreover, the ED90 in test [2] is 1 mg/kg.
